Twelve molecules from US8623906B2, “Carboxy isatin hydrazones and their esters as Shp2 inhibitors” (H. Lee Moffitt Cancer Center and Research Institute, Inc., priority 2009, dated 2014) can be followed below.

Where two headings read alike, the source gives them in different places.

For orientation: IC50 means the concentration that gives 50% inhibition.

The test system of assay [1] is GST-Shp2 PTP domain protein. Type of assay: biochemical. As for the experimental part: All reactions were monitored by thin layer chromatography (TLC) or ^1H NMR. Some products, which could not be purified by simply washing, were purified by Flashmaster chromatography. […] After the purity and structure were confirmed, samples were tested for IC50 by DiFMUP assay, seen in Table 1, appended.
Curve fitting and IC50 were obtained using the GraphPad Prism program (GraphPad Software).

The test system of another assay is Shp2 in MDA-MB-468 cells. The format is cell-based. As for the experimental part:
(§1) To measure Shp2 PTP activity in immune complexes, cells were lysed in ice-cold PTP lysis buffer [25 mM Hepes, pH 7.4, 150 mM NaCl, 1 mM DTT, 2 mM EDTA, 0.5% Triton X-100, 1:50 diluted protease inhibitor cocktail (Roche, Basel, Switzerland)]. Cell lysate supernatants (0.2 mg/each) were incubated with an anti-Shp2 antibody (Santa Cruz Biotechnology, Santa Cruz, Calif.) or with an anti-Flag antibody M2 (Sigma-Aldrich, St. Louis, Mo.) plus protein G-Sepharose for 2 h at 4° C. Immunoprecipitates were washed twice with the PTP lysis buffer and twice with the Reaction Buffer A (25 mM Hepes, pH 7.4, 50 mM NaCl, 1 mM DTT, 0.05% Triton X-100). Each Shp2 immune complex was resuspended in 100 μl of reaction buffer containing 50 μM DiFMUP and incubated at room temperature for 20 min. After a brief centrifugation, supernatants were transferred into 96-well plates and the DiFMU fluorescence signal was measured. The remaining immune complex pellets were used for immunoblotting analysis of Shp2 protein.

In assay [2] the test system is Shp2^E76K in TF-1/Shp2^E76K cells. Type of assay: cell-based. The procedure: as §1
The test system of another assay is pISRE-Luc in HT-29 cells. Nature of the assay: ISRE luciferase reporter assay. The following applies: 50 U/ml IFN-γ alone, 6 h. Type of assay: cell-based. As for the experimental part:
Luciferase reporter assays were conducted using HT-29 cells (5×10^5 cells/each in 12-well plate) were co-transfected with 1.6 μg pISRE-Luc (Clontech, Mountain View, Calif.) and 0.4 μg β-gal plasmids with LipofectAMINE 2000 reagent. Eighteen hours after transfection, cells were incubated in fresh medium, pretreated with indicated concentrations of SPI-112Me or mocked treated for 2 h, and then stimulated with 50 U/ml IFN-γ for 6 h or left unstimulated. Luciferase and β-galactosidase activities were determined as described (Ren, et al., Shp2E76K mutant confers cytokine-independent survival of TF-1 myeloid cells by up-regulating Bcl-XL. J Biol Chem 2007; 282:36463-73). The luciferase activity was then normalized to β-galactosidase-galactosidase activity as an internal control for transfection efficiency.
A general note: A reporter such as luciferase makes a cellular process visible.

A further assay has as its system HT-29 cells. Nature of the assay: Viable cell number (CellTiterGlo), 4 days, Bliss synergism. The following applies: IFN-γ 100 U/ml alone. On the technique in general: ATP-based viability assays read luminescence as a measure of living cells.

In assay [1], `O=C(c1ccc(Cl)c(Cl)c1)N1CCc2cc(S(=O)(=O)N3CCN(c4cccc(Cl)c4)CC3)ccc21` [JF023] displayed an IC50 of 7.1 µM.
In turn, `O=C(O)/C=C/C(=O)N1CCc2cc(S(=O)(=O)N3CCN(c4cccc(Cl)c4)CC3)ccc21` [JHE-01-129A] had a half-maximal inhibitory concentration (IC50) in assay [1] of 2.8 µM.
Molecule `O=C(O)CCC(=O)N1CCCc2cc(S(=O)(=O)N3CCN(c4cccc(Cl)c4)CC3)ccc21` [JHE-02-023] gave an IC50 in assay [1] (Table 1, DiFMUP assay) of 37.3 ± 5.3 µM.
`O=C(Nc1cccc(Cl)c1)N1CCc2cc(S(=O)(=O)N3CCN(c4cccc(Cl)c4)CC3)ccc21` [JHE-02-032A] showed a half-maximal inhibitory concentration (IC50) in assay [1] of 8.3 µM.
Turning to `COc1cccc(NC(=O)N2CCc3cc(S(=O)(=O)N4CCN(c5cccc(Cl)c5)CC4)ccc32)c1` [JHE-02-032B], the IC50 in assay [1] stood at 4.8 µM.
In turn, `COc1cccc(C(=O)N2CCc3cc(S(=O)(=O)N4CCN(c5cccc(Cl)c5)CC4)ccc32)c1` [JHE-02-035A] showed an IC50 in assay [1] of 7.8 µM.
In assay [1], `O=C1Nc2ccc(S(=O)(=O)NCc3ccc(F)cc3)cc2/C1=N/Nc1cccc(C(=O)O)c1` [SPI-112, (Z)-3-(2-(5-(N-(4-fluorobenzyl)sulfamoyl)-2-oxoindolin-3-ylidene)hydrazinyl)benzoic acid] yielded a concentration for half-maximal inhibition (IC50) of 2.6 µM. The “effect on EGF-stimulated Shp2 PTP activity” value in the assay on Shp2 in MDA-MB-468 cells is on record as “did not affect”. In addition, in assay [2], the “effect on Shp2^E76K PTP activity in treated cells” value is on record as “no decrease”.
`COC(=O)c1cccc(N/N=C2\C(=O)Nc3ccc(S(=O)(=O)NCc4ccc(F)cc4)cc32)c1` [SPI-112Me, (Z)-3-(2-(5-(N-(4-fluorobenzyl)sulfamoyl)-2-oxoindolin-3-ylidene) hydrazinyl)benzoic acid methyl ester]: the IC50 in assay [1] is above 100 µM. In addition, the “reduction of EGF-stimulated Shp2 PTP activity” value with Shp2 in MDA-MB-468 cells (20 μM pretreatment, EGF 50 ng/ml, 10 min) is 77%. Besides, the “effect on Shp2^E76K PTP activity in treated cells” value in assay [2] (GM-CSF-free medium) is listed as “lower Shp2^E76K PTP activity”.
Molecule `O=C(O)CCC(=O)N1CCc2cc(S(=O)(=O)N3CCN(c4ccc(F)cc4)CC3)ccc21` [XW2-011B] had an IC50 in assay [1] of 47.8 µM.
For `Cc1cccc(N2CCN(S(=O)(=O)c3ccc4c(c3)CCN4C(=O)CCC(=O)O)CC2)c1` [XW2-057], the IC50 in assay [1] (Table 1, DiFMUP assay) was 3.4 ± 2.3 µM.
With `O=C(O)CCC(=O)N1CCc2cc(S(=O)(=O)N3CCN(c4ccc(C(=O)O)cc4)CC3)ccc21` [XW3-002], half-maximal inhibition in assay [1] (Table 1, DiFMUP assay) (IC50) was put at 6.1 ± 1.8 µM.

B1: IFN-γ: interferon gamma used to stimulate HT-29 cells, alone or combined with SPI-112Me (protein, UniProt P01579 24-161, looked up)
Interferon gamma: QDPYVKEAENLKKYFNAGHSDVADNGTLFLGILKNWKEESDRKIMQSQIVSFYFKLFKNFKDDQSIQKSVETIKEDMNVKFFNSNKKKRDDFEKLTNYSVTDLNVQRKAIHELIQVMAELSPAAKTGKRKRSQMLFRG
With B1, the “activation of ISRE luciferase activity” value with pISRE-Luc in HT-29 cells was 26%. Moreover, the fraction of inhibition in the assay on HT-29 cells came out at 0.18.
